Patent US20170044100A1, “INHIBITORS OF DRUG-RESISTANT MYCOBACTERIUM TUBERCULOSIS” (THE JOHNS HOPKINS UNIVERSITY, priority 2014, published 2017)
In brackets after ≈: the same amount, converted by molar mass.

Columns and labels:
[1] = test system: M. tuberculosis IAR2 (mmpL3 S288T mutant); assay type: cell-based, Mycobacterium tuberculosis
[2] = test system: KZN494 (multi-drug resistant strain of M. tuberculosis); assay: microbe, parasite or virus in culture; assay type: cell-based; details: Mycobacterium tuberculosis; read-out: MIC KZN494 (MDR)
[3] = test system: V2475 (multi-drug resistant strain of M. tuberculosis); assay: microbe, parasite or virus in culture; assay type: cell-based; details: Mycobacterium tuberculosis; read-out: MIC V2475 (MDR)
[4] = test system: R506 (extensively drug resistant strain of M. tuberculosis); assay: microbe, parasite or virus in culture; assay type: cell-based; details: Mycobacterium tuberculosis; read-out: MIC R506 (XDR)
[5] = test system: TF274 (extensively drug resistant strain of M. tuberculosis); assay: microbe, parasite or virus in culture; assay type: cell-based; details: Mycobacterium tuberculosis; read-out: MIC TF274 (XDR)

In the case of BM212, the “Fold change in MIC for IAR2” value [1] was 2, the “MIC for IAR2” value [1] was 4 µg/mL and the “MIC upshift for IAR2 versus H37Rv” value [1] was 2 fold.

AU1235 was tested, and the “MIC for IAR2” value [1] was over 64 µg/mL.

With `NCC[C@H](O)C(=O)N[C@@H]1C[C@H](N)[C@@H](O[C@H]2O[C@H](CN)[C@@H](O)[C@H](O)[C@H]2O)[C@H](O)[C@H]1O[C@H]1O[C@H](CO)[C@@H](O)[C@H](N)[C@H]1O` [Amikacin] the “Fold change in MIC for IAR2” value [1] was 0 and the “MIC for IAR2” value [1] was 1 µg/mL.

With `Cc1cc(C)c2cc(C(=O)NC3CCCCC3)[nH]c2c1` [Compound 3, N-Cyclohexyl-4,6-dimethyl-1H-indole-2-carboxamide] the MIC [2] was 3.7 µM (≈ 1 µg/mL), the “Fold change in MIC for IAR2” value [1] was “≧(512-1024)” and the “MIC for IAR2” value [1] was “≧128 μg/mL”. For the same compound, the “MIC upshift for IAR2 versus H37Rv” value [1] was at least 1024 fold, the MIC [3] was 0.93 to 1.9 µM (≈ 0.251 to 0.514 µg/mL) and the MIC [4] was 0.46 µM (≈ 0.124 µg/mL). The MIC [5] was 0.46 µM (≈ 0.124 µg/mL).

`CC[C@@H](CO)NCCN[C@@H](CC)CO` [Ethambutol] was tested, and the “Fold change in MIC for IAR2” value [1] was 0 and the “MIC for IAR2” value [1] was 1 µg/mL.

With `Cc1cc(C)c2cc(C(=O)NC3CCCCCCC3)[nH]c2c1` [Compound 12, N-Cyclooctyl-4,6-dimethyl-1H-indole-2-carboxamide] the “Fold change in MIC for IAR2” value [1] was 64, the “MIC for IAR2” value [1] was 0.25 µg/mL and the MIC [4] was 0.0067 µM (≈ 0.002 µg/mL). For the same compound, the MIC [5] was 0.026 µM (≈ 0.00776 µg/mL).

In the case of Capreomycin, the “Fold change in MIC for IAR2” value [1] was 0 and the “MIC for IAR2” value [1] was 1 µg/mL.

`Cc1cc(C)c2cc(C(=O)NC3CCCCCC3)[nH]c2c1` [Compound 11, N-Cycloheptyl-4,6-dimethyl-1H-indole-2-carboxamide] was tested, and the MIC [2] was 0.11 µM (≈ 0.0313 µg/mL), the “Fold change in MIC for IAR2” value [1] was 32-64 and the “MIC for IAR2” value [1] was 1 µg/mL. It also gave an MIC [3] of 0.11 µM (≈ 0.0313 µg/mL), an MIC [4] of 0.055 µM (≈ 0.0156 µg/mL) and an MIC [5] of 0.055 µM (≈ 0.0156 µg/mL).

`CC(C)=CCC/C(C)=C/CNCCNC1C2CC3CC(C2)CC1C3` (stereo not shown) [SQ109] was tested, and the “Fold change in MIC for IAR2” value [1] was 16 and the “MIC for IAR2” value [1] was 4 µg/mL.

In the case of `CO[C@H]1/C=C/O[C@@]2(C)Oc3c(C)c(O)c4c(O)c(c(/C=N/N5CCN(C)CC5)c(O)c4c3C2=O)NC(=O)/C(C)=C\C=C\[C@H](C)[C@H](O)[C@@H](C)[C@@H](O)[C@@H](C)[C@H](OC(C)=O)[C@@H]1C` [Rifampin], the “Fold change in MIC for IAR2” value [1] was 0.25, the “MIC for IAR2” value [1] was 0.03125 µg/mL and the “MIC for IAR2 compared with H37Rv” value [1] was “lower MIC value”.

`NNC(=O)c1ccncc1` [Isoniazid, reference compound] was tested, and the “Fold change in MIC for IAR2” value [1] was 0 and the “MIC for IAR2” value [1] was 0.04 µg/mL.
